{
  "source": "patent US11504425B2",
  "about": "“Amphiphilic oligodeoxynucleotide conjugates as adjuvant enhancers” (WAYNE STATE UNIVERSITY, priority 2019, dated 2022)",
  "key": {"mouse TLR8 (mTLR8)": {"molecular_target": "T1, mouse TLR8 (mTLR8) (Mus musculus, UniProt P58682)", "T1 construct": "host or cells: HEK-Blue-mTLR8 (HEK293)", "T1 sequence (P58682 24-1032)": "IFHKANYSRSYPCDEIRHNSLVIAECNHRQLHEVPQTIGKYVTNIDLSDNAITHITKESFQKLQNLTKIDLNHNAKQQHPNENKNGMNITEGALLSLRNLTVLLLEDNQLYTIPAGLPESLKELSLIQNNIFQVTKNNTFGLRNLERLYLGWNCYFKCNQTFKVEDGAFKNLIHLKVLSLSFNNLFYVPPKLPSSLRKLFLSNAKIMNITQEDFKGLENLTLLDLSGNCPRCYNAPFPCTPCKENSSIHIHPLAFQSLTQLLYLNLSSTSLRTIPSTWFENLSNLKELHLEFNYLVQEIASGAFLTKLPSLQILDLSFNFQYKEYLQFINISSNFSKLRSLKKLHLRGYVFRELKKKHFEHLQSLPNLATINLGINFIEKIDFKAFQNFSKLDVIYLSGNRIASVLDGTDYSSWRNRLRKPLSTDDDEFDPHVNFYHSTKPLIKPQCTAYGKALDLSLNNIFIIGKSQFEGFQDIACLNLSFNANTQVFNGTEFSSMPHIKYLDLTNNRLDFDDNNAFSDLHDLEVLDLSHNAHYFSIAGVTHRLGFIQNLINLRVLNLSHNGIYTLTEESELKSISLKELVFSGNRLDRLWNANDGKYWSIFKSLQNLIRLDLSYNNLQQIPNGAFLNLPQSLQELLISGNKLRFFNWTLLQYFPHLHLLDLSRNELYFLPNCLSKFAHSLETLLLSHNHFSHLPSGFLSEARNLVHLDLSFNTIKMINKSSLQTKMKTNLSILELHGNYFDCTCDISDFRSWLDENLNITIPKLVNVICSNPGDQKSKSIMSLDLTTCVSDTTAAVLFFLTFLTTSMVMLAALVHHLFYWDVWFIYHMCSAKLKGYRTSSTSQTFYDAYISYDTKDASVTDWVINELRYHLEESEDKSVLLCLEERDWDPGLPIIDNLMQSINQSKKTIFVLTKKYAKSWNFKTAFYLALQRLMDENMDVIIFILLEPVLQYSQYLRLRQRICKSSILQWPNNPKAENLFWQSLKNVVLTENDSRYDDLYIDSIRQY", "assay": "HEK mTLR8 reporter cells NF-κB/SEAP", "format": "cell-based", "details": "ligands at indicated concentrations + 1 μM ODN, 24 h", "experimental": "(§1) HEK-Blue™-mTLR7, mTLR8, hTLR7, hTLR8, and RAW-Blue™ cells were purchased from InvivoGen and were used to evaluate bioactivities of lipo ODNs and TLR 7/8 ligands in vitro. All these cell lines were cultured with DMEM supplemented with 10% FBS, 1% P/S and 100 μg/mL Normocin at 37° C. with 5% CO2. […] After incubating for 24 h, SEAP levels were quantified by developing supernatants with QuantiBlue™ substrate for 1 h and reading absorption at 620 nm, following manufacturer's instructions.\nRaw Blue cells which respond to both murine TLR-7 and TLR-8 are also included to assess the overall modulatory effect. half-maximal effective concentration (EC50) and potency of several classic TLR7/8 ligands were evaluated in murine TLR7 and TLR8 reporter cells."}, "human TLR7 (hTLR7)": {"molecular_target": "T2, human TLR7 (hTLR7) (Homo sapiens, UniProt Q9NYK1)", "T2 construct": "host or cells: HEK-Blue-hTLR7 (HEK293)", "T2 sequence (Q9NYK1 27-1049)": "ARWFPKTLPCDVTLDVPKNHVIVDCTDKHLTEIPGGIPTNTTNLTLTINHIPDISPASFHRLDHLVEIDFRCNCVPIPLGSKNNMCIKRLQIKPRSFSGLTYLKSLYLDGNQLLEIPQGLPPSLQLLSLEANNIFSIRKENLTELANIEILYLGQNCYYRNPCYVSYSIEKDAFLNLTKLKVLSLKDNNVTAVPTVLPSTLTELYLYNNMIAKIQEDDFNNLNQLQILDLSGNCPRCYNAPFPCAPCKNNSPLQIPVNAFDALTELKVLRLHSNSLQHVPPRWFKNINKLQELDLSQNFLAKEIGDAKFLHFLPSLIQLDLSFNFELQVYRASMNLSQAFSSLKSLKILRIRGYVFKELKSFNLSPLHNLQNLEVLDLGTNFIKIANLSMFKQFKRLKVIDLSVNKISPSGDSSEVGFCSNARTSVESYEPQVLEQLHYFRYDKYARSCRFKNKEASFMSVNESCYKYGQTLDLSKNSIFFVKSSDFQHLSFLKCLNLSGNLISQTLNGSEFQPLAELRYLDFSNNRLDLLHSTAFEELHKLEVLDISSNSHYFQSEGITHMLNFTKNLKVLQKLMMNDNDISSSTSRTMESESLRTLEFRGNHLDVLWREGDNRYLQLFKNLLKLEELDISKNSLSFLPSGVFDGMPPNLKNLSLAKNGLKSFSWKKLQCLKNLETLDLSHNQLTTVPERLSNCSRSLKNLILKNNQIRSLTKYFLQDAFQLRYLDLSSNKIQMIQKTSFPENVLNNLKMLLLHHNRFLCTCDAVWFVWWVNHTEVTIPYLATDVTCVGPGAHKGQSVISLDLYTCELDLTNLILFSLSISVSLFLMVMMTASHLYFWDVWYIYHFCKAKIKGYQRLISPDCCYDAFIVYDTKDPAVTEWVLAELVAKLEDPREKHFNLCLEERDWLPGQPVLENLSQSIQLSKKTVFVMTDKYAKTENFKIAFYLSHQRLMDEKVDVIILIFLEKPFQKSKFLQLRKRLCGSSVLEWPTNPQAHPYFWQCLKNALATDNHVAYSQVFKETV", "assay": "HEK hTLR7 reporter cells NF-κB/SEAP", "format": "cell-based", "details": "IMQ at indicated concentrations + 1 μM ODN, 24 h", "experimental": "as §1\nHEK293 cells transfected with human TLR7 or 8 were used. The cells were stimulated with IMQ in the presence of several inhibitory oligonucleotides reported in the literature. […] In contrast, all the unmodified ODNs maintained their inhibitory function, reducing the NF-κB secretion to basal levels (FIG. 8A). We then plotted the IMQ dose response curve in human TLR-7 transfected HEK293 cells."}},
  "data": [
    {"substance": "5′-TTTTTTTTTTTTTTTTTTTT-3′ [T20]", "values": [
      {"measurement": "mTLR8 stimulation by IMQ, CL075, R848 in the presence of the ODN", "setting": "mouse TLR8 (mTLR8)", "value": "increased the potency of TLR-8 stimulation"},
      {"measurement": "IMQ dose response in hTLR7 cells in the presence of the ODN", "setting": "human TLR7 (hTLR7)", "value": "completely abrogated the immune activation by IMQ"}
    ]}
  ]
}
